Assay results taken from US20160106719A1, “Transplantation Adjuvant in Cell Therapy Using Neural Progenitor Cells” (SUMITOMO DAINIPPON PHARMA CO., LTD., priority 2013, published 2016).

Tested on: re-aggregated PSA-NCAM+ cells (neural progenitor cells derived from mouse iPS cell line 440A3)
Test: In vitro differentiation of mouse iPS cell-derived neural progenitor cells into dopaminergic neurons (immunocytochemistry for marker molecules)
Format: cell-based
Conditions: for ratio of TH+ cells: day 10 to 14, control 5.2±1.1%
Protocol: DMEM contained 1% fetal bovine serum (FBS), 5% knockout serum replacement (KSR; manufactured by Invitrogen), 0.1 mM non-essential amino acids, 1 mM sodium pyruvate, 0.1 mM 2-mercaptoethanol (2-ME; manufactured by Invitrogen), 2000 U/ml leukemia inhibitory factor (manufactured by Invitrogen), and 1.5 μg/ml puromycin. In order to differentiate and induce the iPS cells into neural cells, serum-free floating culture of embryoid bodies-like aggregates (SFEB) was employed. Specifically, aggregates of the 440A3 cells were separated into individual cells by using 0.25% trypsin/1 mM EDTA (ethylenediaminetetraacetic acid), and the resultant cells were seeded in a 96-well low adhesion plate (product name: Lipidure-Coat Plate A-US96, manufactured by NOF Corporation) at a concentration (cell density) of 3000 cells/well. Thereafter, re-aggregation of the 440A3 cells was induced in a differentiation medium containing GMEM (Glasgow Minimum Essential Medium), 5% KSR, 0.1 mM non-essential amino acids, 1 mM sodium pyruvate and 0.1 mM 2-ME, and this day was defined as day 0 (FIG. 1). During this differentiation process, various factors were added to the differentiation medium for inducing midbrain dopaminergic phenotypes as illustrated in FIG. 1. Specifically, from day 3 to day 7 after starting the SFEB, 20 ng/ml of mouse FGF-8b (manufactured by R & D Systems) was added, from day 4 to day 7 after starting the SFEB, 10 ng/ml of recombinant mouse sonic hedgehog (C25I1) N-terminus (manufactured by R & D Systems) was added, and on and after day 7 after starting the SFEB, 1% N-2 supplement (manufactured by Gibco) and 200 nM ascorbic acid were added. The KSR was removed from the differentiation medium on day 7 after starting the SFEB.
On day 9 after starting the SFEB, the 440A3 cells were washed with phosphate buffered saline (PBS(-)) twice. Thereafter, the 440A3 cells were dissociated into single cells by five-minute incubation performed at 37° C. by using Accumax (manufactured by Innovate Cell Technologies, product name). The cells were collected with a FACS buffer. The FACS buffer was constituted by PBS(-) containing 2% FBS, 20 mM D-glucose and 1% penicillin/streptomycin (P/S, manufactured by Invitrogen). The collected cells were mechanically dissociated into a single cell suspension by a gentle pipetting operation.
Next, the resultant cells were incubated with a mouse anti-PSA-NCAM antibody (dilution rate of 1:200, manufactured by Millipore) at 4° C. for about 30 minutes. Thereafter, a washing operation using a centrifuge was performed twice, and the resultant cells were further incubated for 30 minutes with a secondary antibody of a donkey anti-mouse IgG (dilution rate of 1:400, manufactured by Invitrogen) labeled with AlexaFluor 594. Dead cells and cell debris were excluded by using 7-aminoactinomycin-D (7-AAD, manufactured by BD Pharmigen) stain. The remaining living cells were suspended again at a final concentration (cell density) of 1×10^7 cells/ml. Cell sorting was conducted by using a FACSAria II cell sorter (manufactured by Becton Dickinson And Company) equipped with a 488 nm argon laser, a 633 nm helium-neon laser, a 100 μm nozzle and a FACSDiva software program. A PSA-NCAM positive rate was determined on the basis of a negative control not using a primary antibody.
After the cell sorting, in order to induce the reaggregation of the cells, a PSA-NCAM^+ cell group was seeded in a DMEM/F12 medium (manufactured by Wako Pure Chemical Industries, Ltd.) in a 96-well plate at a concentration (cell density) of 20000 cells/well. The DMEM/F12 medium contained 1% N-2 supplement, 200 nM ascorbic acid, 2% B27 supplement (manufactured by Invitrogen), 0.5 mM L-glutamine and 1% P/S. In order to prevent apoptosis, a ROCK inhibitor, Y-27632 (manufactured by Wako Pure Chemical Industries, Ltd.), was used at a concentration of 30 μM during the cell sorting process and the following overnight cultivation. […]

With `CCCC(CCC)C(=O)[O-].[Na+]` [VPA, sodium 2-propylpentanoate] as the compound, how does the “ratio of TH+ cells” value (VPA 0.01 mM) read?
Its value is 12.1±1.5%.

And the “ratio of TH+ FOXA2+ cells” value (VPA 0.1 mM, control 0.25±0.22%)?
Its value is 1.00±0.58%.

What about the “ratio of TH+ NURR1+ cells” value (VPA 0.1 mM, control 0.37±0.32%) of the same compound?
The value was 1.00±0.70%.

What about the “ratio of TH+ cells” value (VPA 0.1 mM) of the same compound?
Its value is 11.7±0.4%.
